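Method: 48-hour compound exposure of cells in 96-well plates, five concentrations, linear interpolation of endpoints. GI50 = concentration required for 50% inhibition of growth.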 Activity calls are given as the source filed them. Rule as the data show it: active = GI50 up to about 1.1 µM and inactive = higher.
What was measured:
Test in all cases: inhibition of tumour cell growth, NCI panel, 48 h
A549 = tested on: A549
ACHN = tested on: ACHN
COLO 205 = tested on: COLO 205
DU-145 = tested on: DU-145
HCC 2998 = tested on: HCC 2998
HCT-116 = tested on: HCT-116
HCT-15 = tested on: HCT-15
HL-60 = tested on: HL-60
K562 = tested on: K562
MDA-MB-435 = tested on: MDA-MB-435
MDA-N = tested on: MDA-N
NCI-H226 = tested on: NCI-H226
NCI-H522 = tested on: NCI-H522
OVCAR-4 = tested on: OVCAR-4
OVCAR-5 = tested on: OVCAR-5
PC-3 = tested on: PC-3
SK-MEL-5 = tested on: SK-MEL-5
SN12C = tested on: SN12C
SR = tested on: SR
UO-31 = tested on: UO-31

| SMILES | GI50 (A549) | GI50 (ACHN) | GI50 (COLO 205) | GI50 (DU-145) | GI50 (HCC 2998) | GI50 (HCT-116) | GI50 (HCT-15) | GI50 (HL-60) | GI50 (K562) | GI50 (MDA-MB-435) | GI50 (MDA-N) | GI50 (NCI-H226) | GI50 (NCI-H522) | GI50 (OVCAR-4) | GI50 (OVCAR-5) | GI50 (PC-3) | GI50 (SK-MEL-5) | GI50 (SN12C) | GI50 (SR) | GI50 (UO-31) |
| --- | --- | --- | --- | --- | --- | --- | --- | --- | --- | --- | --- | --- | --- | --- | --- | --- | --- | --- | --- | --- |
| CC1(C)CC(Nc2ccc(Nc3ccccc3)cc2)CC(C)(C)N1 | 45.9 µM (inactive) | 13.5 µM (inactive) | 16.8 µM (inactive) | 23 µM (inactive) | 15.7 µM (inactive) | 35.6 µM (inactive) | 33.8 µM | 6.97 µM (inactive) | 13.2 µM (inactive) | 16.8 µM (inactive) | 17 µM (inactive) | 17.1 µM (inactive) | 10.1 µM (inactive) | 34.2 µM (inactive) | 36.2 µM (inactive) | 11.5 µM (inactive) | 15.2 µM (inactive) | 48.6 µM (inactive) | 14.6 µM (inactive) | 9.48 µM (inactive) |
| CCN(CC)C1Oc2cc3c(cc2C(c2cccc(OC)c2OC)C1C)OCO3 (stereo not given) | 4.46 µM (inactive) | 3.22 µM (inactive) | 3.85 µM (inactive) | 3.23 µM (inactive) | 11.3 µM (inactive) | 2.79 µM (inactive) | 3.93 µM | 1.88 µM (inactive) | 3.05 µM (inactive) | 10.1 µM (inactive) | 8.59 µM (inactive) | 2.05 µM (inactive) | 4.13 µM (inactive) | – | 13 µM (inactive) | 4.03 µM (inactive) | 6.84 µM (inactive) | 5.4 µM (inactive) | 0.729 µM (active) | 4.21 µM (inactive) |
| O=C(CSc1ncccn1)N/N=C/c1ccccc1OCc1ccccc1 | 71.8 µM (inactive) | 35.2 µM (inactive) | 19.2 µM (inactive) | 29.8 µM (inactive) | 27.8 µM (inactive) | 23 µM (inactive) | 17.3 µM | 21.1 µM (inactive) | 20.1 µM (inactive) | 4.33 µM (inactive) | 10.8 µM (inactive) | 20.6 µM (inactive) | 28.4 µM (inactive) | 22.8 µM (inactive) | > 100 µM (inactive) | 28.8 µM (inactive) | 14.8 µM (inactive) | 27.2 µM (inactive) | 4.23 µM (inactive) | 44.5 µM (inactive) |
| CCOC(=O)CC1Nc2ccccc2C12CCc1c([nH]c3ccccc13)C2C(=O)OCC (stereo not given) | 14.3 µM (inactive) | 28.6 µM (inactive) | 5.12 µM (inactive) | > 100 µM (inactive) | 84.9 µM (inactive) | 12.9 µM (inactive) | 13.1 µM | 14.7 µM (inactive) | 34 µM (inactive) | 4.79 µM (inactive) | 4.65 µM (inactive) | – | 7.13 µM (inactive) | 12.3 µM (inactive) | > 100 µM (inactive) | 53.2 µM (inactive) | 14.8 µM (inactive) | 24.7 µM (inactive) | 17.3 µM (inactive) | 36.1 µM (inactive) |
| C1=Nc2sc3c(c2C2=NCCN12)CCCC3 | – | 17.1 µM (inactive) | 23.3 µM (inactive) | 16.3 µM (inactive) | 11.8 µM (inactive) | 16.3 µM (inactive) | 16.4 µM | 13.6 µM (inactive) | 22.4 µM (inactive) | 18.5 µM (inactive) | 20.1 µM (inactive) | 13.3 µM (inactive) | 15.9 µM (inactive) | 20.6 µM (inactive) | 18.2 µM (inactive) | 16.7 µM (inactive) | 18 µM (inactive) | – | 21.2 µM (inactive) | 16.3 µM (inactive) |
| Cc1cc(S(=O)(=O)N/C(=C(\C#N)C(=O)c2ccc(Cl)cc2)[n+]2ccc(N(C)C)cc2)c([S-])cc1Cl | 37.6 µM (inactive) | > 100 µM (inactive) | > 100 µM (inactive) | > 100 µM (inactive) | 83 µM (inactive) | 19.8 µM (inactive) | 48.6 µM | > 100 µM (inactive) | 53.2 µM (inactive) | > 100 µM (inactive) | > 100 µM (inactive) | > 100 µM (inactive) | 28.9 µM (inactive) | 40.9 µM (inactive) | 66.5 µM (inactive) | 36.6 µM (inactive) | > 100 µM (inactive) | > 100 µM (inactive) | 41.3 µM (inactive) | > 100 µM (inactive) |
| CCC(C)C(C(=O)N/N=C1/SCC(=O)N1c1ccccc1)C(=O)N/N=C1/SCC(=O)N1c1ccccc1 (stereo not given) | > 100 µM (inactive) | > 100 µM (inactive) | > 100 µM (inactive) | 43.5 µM (inactive) | > 100 µM (inactive) | 23 µM (inactive) | > 100 µM | > 100 µM (inactive) | > 100 µM (inactive) | 17.9 µM (inactive) | 27.2 µM (inactive) | – | 56.9 µM (inactive) | 16.4 µM (inactive) | > 100 µM (inactive) | > 100 µM (inactive) | 22 µM (inactive) | > 100 µM (inactive) | 40.6 µM (inactive) | > 100 µM (inactive) |
| O=C(O)Cc1c(-c2ccc([N+](=O)[O-])cc2)c(=O)oc2cc(O)ccc12 | 37.3 µM (inactive) | 24.2 µM (inactive) | 34.2 µM (inactive) | 30.4 µM (inactive) | 25.1 µM (inactive) | 26.1 µM (inactive) | 24.2 µM | 17.7 µM (inactive) | 30.9 µM (inactive) | 28.8 µM (inactive) | 30.4 µM (inactive) | 29 µM (inactive) | 29 µM (inactive) | – | 30.1 µM (inactive) | 28.1 µM (inactive) | 18.1 µM (inactive) | 30.5 µM (inactive) | 25.9 µM (inactive) | 23.4 µM (inactive) |
| CN(C)Cc1cc(C=O)cc(CN(C)C)c1O | > 100 µM (inactive) | > 100 µM (inactive) | > 100 µM (inactive) | > 100 µM (inactive) | > 100 µM (inactive) | > 100 µM (inactive) | > 100 µM | > 100 µM (inactive) | > 100 µM (inactive) | > 100 µM (inactive) | > 100 µM (inactive) | > 100 µM (inactive) | > 100 µM (inactive) | > 100 µM (inactive) | – | > 100 µM (inactive) | > 100 µM (inactive) | > 100 µM (inactive) | > 100 µM (inactive) | > 100 µM (inactive) |
| CCOP(=O)(OCC)OC1CC(n2cnc3c(N(CC)CC)ncnc32)OC1CO[Si](C)(C)C(C)(C)C (stereo not given) | 15.7 µM (inactive) | 15.3 µM (inactive) | 18.5 µM (inactive) | 15.5 µM (inactive) | 23.2 µM (inactive) | 16.8 µM (inactive) | 21.4 µM | 65 µM (inactive) | 17.8 µM (inactive) | 17.3 µM (inactive) | 18 µM (inactive) | 19.2 µM (inactive) | 14.3 µM (inactive) | 14.1 µM (inactive) | 19 µM (inactive) | 12.2 µM (inactive) | 17.3 µM (inactive) | 19.4 µM (inactive) | 31.3 µM (inactive) | 19.1 µM (inactive) |
| OC1(c2ccccc2)c2ccccc2N=C2NCCN21 (stereo not given) | > 100 µM (inactive) | > 100 µM (inactive) | 32.9 µM (inactive) | > 100 µM (inactive) | 16.3 µM (inactive) | 83.9 µM (inactive) | 93.1 µM | 44.1 µM (inactive) | – | > 100 µM (inactive) | 35.6 µM (inactive) | > 100 µM (inactive) | > 100 µM (inactive) | > 100 µM (inactive) | > 100 µM (inactive) | 52.2 µM (inactive) | 37.6 µM (inactive) | 82.8 µM (inactive) | 0.192 µM (active) | 59.2 µM (inactive) |
| CC1=NN(C(=O)c2ccncc2)C(=O)C1 | > 100 µM (inactive) | > 100 µM (inactive) | > 100 µM (inactive) | > 100 µM (inactive) | > 100 µM (inactive) | > 100 µM (inactive) | > 100 µM | > 100 µM (inactive) | > 100 µM (inactive) | > 100 µM (inactive) | > 100 µM (inactive) | > 100 µM (inactive) | > 100 µM (inactive) | > 100 µM (inactive) | > 100 µM (inactive) | > 100 µM (inactive) | > 100 µM (inactive) | 29.2 µM (inactive) | > 100 µM (inactive) | > 100 µM (inactive) |
| COc1ccc(C2CCc3nc4nc(N)nc(N)c4cc3C2)cc1 (stereo not given) | 39.3 µM (inactive) | 6.64 µM (inactive) | 40.3 µM (inactive) | 39.7 µM (inactive) | 31.8 µM (inactive) | 26 µM (inactive) | 58.9 µM | 54 µM (inactive) | 16.4 µM (inactive) | 27.4 µM (inactive) | 38.3 µM (inactive) | 49.4 µM (inactive) | 25.4 µM (inactive) | 22.8 µM (inactive) | > 100 µM (inactive) | 85.1 µM (inactive) | 62.5 µM (inactive) | 6.7 µM (inactive) | 24.3 µM (inactive) | – |
| c1ccc(-c2nn(-c3ccccc3)[n+](-c3ccccc3)n2)cc1 [TETRAZOLIUM RED] | 23.9 µM (inactive) | > 78 µM (inactive) | – | > 48.5 µM (inactive) | 1.53 µM (inactive) | 6.5 µM (inactive) | > 100 µM | 0.184 µM (active) | 18.6 µM (inactive) | 11.1 µM (inactive) | 12.9 µM (inactive) | 24.5 µM (inactive) | > 37.9 µM (inactive) | 2.01 µM (inactive) | 35.7 µM (inactive) | 3.83 µM (inactive) | 3.49 µM (inactive) | 9.59 µM (inactive) | 3.37 µM (inactive) | > 100 µM (inactive) |

Reference: ChEMBL document CHEMBL1201862, “PubChem BioAssay data set” (2004)
